Several values for one entry are separate records, joined by “and”; a condition that tells them apart may be missing. Equal entries are not always repeated. Where two headings read alike, the source gives them in different places.
Assays:
[1] = Acute toxicity, neurological status of rats (positional sense, muscle tone, gait and stance); format: in vivo; details: Sprague-Dawley, rat, in vivo, rats
Method: (§1) Abnormal neurological status in rats was evaluated by the positional sense test, the muscle tone test, and the gait and stance test. Inability of the rat to perform normally in at least two of these tests is taken as an indication of some neurological deficit.

rats = test: as above; format: in vivo
Method: as §1

MES-induced seizures = test: Maximal electroshock (MES) seizure test, rats (ASP, methylcellulose suspension); format: in vivo; details: for ED50: Rattus norvegicus, read-out: ED50, seizure protection in the MES test
Method: SKA-19 was tested under the auspices of the National Institutes of Health's Anticonvulsant Screening Program (ASP). Experiments were performed in male albino CF (Carworth Farms) No. 1 mice or Sprague-Dawley rats according to the established protocols of the ASP (White et al., 2002). SKA-19 was suspended in 0.5% methylcellulose and administered in a volume that permits accuracy of dosage without excessively contributing to total body fluid (0.01 ml/g body weight for mice and 0.04 ml/10 g body weight for rats).
Animals received an electrical stimulus of 0.2 s duration (50 mA in mice and 150 mA in rat at 60 Hz) delivered via corneal electrodes primed with an electrolyte solution containing 0.5% tetracaine. Animals were restrained by hand and released immediately after stimulation to permit observation of the seizure throughout its entire course. In the initial screens to identify anticonvulsant activity mice were tested at 30 minutes and 4 hours following doses of 3, 10, 30, 100 and 300 mg/kg of SKA-19 and rats tested at time intervals between 0.25 and 4 hours following a standard oral dose of 30 mg/kg. In the subsequent, more quantitative tests at least four doses of SKA-19 (n=8 per dose) were tested at the previously determined time of peak effect (TPE). Abolition of hindlimb tonic extension indicates the test compound's ability to inhibit MES-induced seizure spread. Tonic extension is considered abolished if the hind limbs are not fully extended at 180° with the body.

[2] = Acute toxicity, rotorod test in mice; format: in vivo; details: mouse, in vivo, ip, mice, i.p., suspension, read-out: TD50, ability of mice to stay on the rotorod
Method: (§2) Abnormal neurological status in mice following SKA-19 administration was evaluated with the rotorod test. When a normal mouse is placed on a rod 1 inch in diameter that rotates at a speed of 6 rpm, the mouse can maintain equilibrium for a long time. Inability of the mouse to stay on the rotating rod in three trials for 1 min is taken as an indication of motor impairment. […] Mice were placed on a horizontally oriented grid (consisting of parallel 1.5-mm diameter rods situated 1 cm apart), and the grid was inverted. Animals that fell from the grid within 10 s were scored as impaired.

mice [3] = test: Acute toxicity, rotorod test in mice; format: in vivo
Method: as §2

[4] = ASP toxicity studies (species not stated); format: in vivo; details: 200 mg/kg
[5] = Motor toxicity, horizontal screen test in mice; format: in vivo; details: in vivo, ip, i.p. as solution, 10 min time point, read-out: TD50, neurological impairment (horizontal screen)
Method: as §2
(§3) The mouse maximal electroshock (MES) and 6 Hz seizure models were used. Motor toxicity was assessed using a modification of the horizontal screen test. ED50 values in the seizure models and TD50 values in the toxicity test were determined by nonlinear fitting of dose-response curves. […] Drugs solutions were injected intraperitoneally 10 min prior to administration of the electrical stimulus in a volume of 10 ml/kg body weight.

mice [6] = test: Motor toxicity, horizontal screen test in mice; format: in vivo; details: i.p. as solution, 10 min time point
Method: as §2, §3

Nav1.2 = Nav1.2 (Mus musculus (Mouse), UniProt B1AWN6); test: Voltage-clamp, Nav1.2 currents in N1E-115 neuroblastoma cells; format: cell-based
Method: (§4) All experiments were conducted at room temperature (22-24° C.) with an EPC-10 amplifier and Pulse software (HEKA, Lambrecht/Pfalz, Germany) in the whole-cell mode of the patch-clamp technique. Human embryonic kidney (HEK)-293 cell lines stably expressing hNav1.1, hNav1.5, hNav1.7 channels (generously provided by Dr. Christopher Lossin, University of California Davis), hNav1.4 (Frank Lehmann-Horn, University of Ulm), or hKv2.1 channels (James Trimmer, University of California Davis) were bathed in extracellular solution containing (in mM): 160 NaCl; 4.5 KCl; 1 MgCl2; 2 CaCl2; 10 HEPES [pH was adjusted to 7.4 using NaOH (310 mOsm)]. Pipettes were filled with intracellular solution containing (in mM): 145 KF; 2 MgCl2; 10 ethylene glycol tetraacetic acid; 10 HEPES (pH adjusted to 7.2 with KOH; 300 mOsm). Neuroblastoma N1E-115 cells (ATCC, Manassa, Va., USA) expressing Nav1.2 were patched with a CsF internal solution consisting of (in mM): 10 NaF; 110 CsF; 20 CsCl; 2 ethylene glycol tetraacetic acid; 10 HEPES (CsOH to pH 7.35; 300 mOsm). All pipette tip resistances were 2-4 MΩ. Series resistances of 3-10 MΩ were compensated 40-80%. All cells were voltage-clamped to a holding potential of −90 mV unless otherwise specified. The sampling frequency was 5 kHz. Na^+ currents were elicited by 30-ms pulse to 0 mV from −90 mV applied every 10 s. Kv2.1 currents were elicited by 200-ms voltage steps from −90 to 40 mV applied every 10 s.

Nav1.1 = Nav1.1 (Homo sapiens (Human), UniProt P35498); test: Voltage-clamp, Nav1.1 in HEK-293 cells; format: cell-based; details: holding potential -90 mV, 0.1 Hz; read-out: EC50 or IC50, Nav1.1
Method: as §4, with “Kv2.1 currents were elicited by 200-ms voltage steps from −90 to 40 mV applied every 10 s.” left out

Nav1.2, sequence (B1AWN6 whole entry): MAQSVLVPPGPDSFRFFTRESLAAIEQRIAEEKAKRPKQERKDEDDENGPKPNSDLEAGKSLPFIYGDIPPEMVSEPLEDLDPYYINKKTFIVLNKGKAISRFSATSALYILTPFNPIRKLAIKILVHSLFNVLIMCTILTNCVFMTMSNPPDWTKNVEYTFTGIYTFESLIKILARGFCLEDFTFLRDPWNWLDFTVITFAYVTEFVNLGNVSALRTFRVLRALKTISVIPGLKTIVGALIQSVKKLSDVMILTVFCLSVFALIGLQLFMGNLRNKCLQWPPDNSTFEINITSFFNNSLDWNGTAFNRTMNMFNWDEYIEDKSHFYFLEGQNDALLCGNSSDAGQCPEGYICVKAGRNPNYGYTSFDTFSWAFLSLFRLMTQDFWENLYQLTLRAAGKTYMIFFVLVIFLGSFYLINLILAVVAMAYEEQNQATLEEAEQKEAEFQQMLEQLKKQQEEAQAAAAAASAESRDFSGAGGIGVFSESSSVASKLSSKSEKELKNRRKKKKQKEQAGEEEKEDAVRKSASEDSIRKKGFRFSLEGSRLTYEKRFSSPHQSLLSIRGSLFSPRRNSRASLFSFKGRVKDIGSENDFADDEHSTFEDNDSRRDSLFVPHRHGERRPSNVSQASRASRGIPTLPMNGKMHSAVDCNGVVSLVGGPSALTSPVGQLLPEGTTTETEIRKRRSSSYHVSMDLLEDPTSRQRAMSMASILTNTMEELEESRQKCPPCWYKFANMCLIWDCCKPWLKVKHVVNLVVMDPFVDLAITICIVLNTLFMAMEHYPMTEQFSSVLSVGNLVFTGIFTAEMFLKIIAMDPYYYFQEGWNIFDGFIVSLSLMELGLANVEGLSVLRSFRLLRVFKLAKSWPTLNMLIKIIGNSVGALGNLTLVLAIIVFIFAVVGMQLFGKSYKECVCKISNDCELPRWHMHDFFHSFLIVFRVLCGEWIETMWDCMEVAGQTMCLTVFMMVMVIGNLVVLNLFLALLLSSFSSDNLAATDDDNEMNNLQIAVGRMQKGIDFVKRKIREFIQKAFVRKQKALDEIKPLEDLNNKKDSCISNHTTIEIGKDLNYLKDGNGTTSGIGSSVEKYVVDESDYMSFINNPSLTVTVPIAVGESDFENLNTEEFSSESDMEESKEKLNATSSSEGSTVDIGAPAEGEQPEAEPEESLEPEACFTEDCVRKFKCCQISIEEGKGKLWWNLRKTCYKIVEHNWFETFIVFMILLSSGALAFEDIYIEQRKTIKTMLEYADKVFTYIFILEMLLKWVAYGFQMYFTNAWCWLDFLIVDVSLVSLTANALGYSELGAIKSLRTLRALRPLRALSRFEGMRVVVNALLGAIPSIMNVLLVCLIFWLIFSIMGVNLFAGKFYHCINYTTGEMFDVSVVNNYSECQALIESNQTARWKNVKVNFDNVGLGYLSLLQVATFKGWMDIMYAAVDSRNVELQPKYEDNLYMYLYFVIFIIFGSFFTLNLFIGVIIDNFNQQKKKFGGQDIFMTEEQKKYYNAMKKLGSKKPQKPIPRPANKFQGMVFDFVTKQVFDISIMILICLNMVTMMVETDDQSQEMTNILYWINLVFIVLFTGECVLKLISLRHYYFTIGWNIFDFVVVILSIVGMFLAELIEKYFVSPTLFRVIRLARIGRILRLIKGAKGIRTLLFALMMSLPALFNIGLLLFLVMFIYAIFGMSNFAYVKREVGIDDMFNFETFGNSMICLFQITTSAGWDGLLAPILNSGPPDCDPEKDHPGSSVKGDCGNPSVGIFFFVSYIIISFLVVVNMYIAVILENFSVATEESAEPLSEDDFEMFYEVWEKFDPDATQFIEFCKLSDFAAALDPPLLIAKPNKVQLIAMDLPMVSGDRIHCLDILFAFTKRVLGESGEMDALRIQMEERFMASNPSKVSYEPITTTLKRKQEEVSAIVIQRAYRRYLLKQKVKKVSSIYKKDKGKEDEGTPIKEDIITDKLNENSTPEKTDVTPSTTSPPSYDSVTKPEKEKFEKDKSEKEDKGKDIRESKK

Nc1nc2ccc(SC(F)(F)F)cc2s1 [SKA-19, 6-((trifluoromethyl)thio)benzo[d]thiazol-2-amine]
TD50 ([1]; ip): 14.3 mg/kg | TD50 at 1 h ([1]; ip): 14.3 mg/kg | TD50 at 4 h ([1]; oral): 77.4 mg/kg | deaths (rats; rat, in vivo): No deaths | neurotoxicity (rats; rats, oral 30 mg/kg, 0.25-4 h): without inducing neurotoxicity | ED50 (MES-induced seizures; ip, 1 h time point): 1.6 mg/kg | ED50 (MES-induced seizures; oral (SKA-19: 4 h time point)): 2.33 mg/kg | protective index PI (TD50/ED50) (MES-induced seizures; i.p.): 8.9 | protective index PI (TD50/ED50) (MES-induced seizures; oral): ~33 and 33.2 | protection from MES induced seizures, initial screen (MES-induced seizures; oral 30 mg/kg, 0.25, 0.5, 1, 2 and 4 h): fully protected | TD50 ([2]; CF No. 1 (Carworth Farms)): 29.8 mg/kg | TD50 at 2 h ([2]; albino CF No. 1 (Carworth Farms)): 29.8 mg/kg | TD50 [2]: 29.7 mg/kg | neurological deficit, rotorod (mice [3]; 100 mg/kg): inability to clasp the rotorod | mice that died (mice [3]; 100 mg/kg i.p.): two out of 8 | neurological deficit / lethality (mice [3]; 300 mg/kg): sedation or death | ability of mice to stay on the rotorod (mice [3]; 0.5 and 4 hours after 3, 10 and 30 mg/kg): no impairment | duration of sedation and neurological impairment [4]: up to 24 h | TD50 at 10 min ([5]; CF-1, mouse): 16.1 mg/kg | TD50 at 10 min ([5]; mouse): 16.1 mg/kg | TD50, neurological impairment (horizontal screen) (mice [6]): 16.33 mg/kg | IC50 (Nav1.2; 20 Hz, read-out: IC50, Nav1.2): 0.52 ± 0.23 µM | IC50 (Nav1.2; -70 mV holding potential, read-out: IC50, Nav1.2): 0.86 ± 0.7 µM | IC50 (Nav1.2; -120 mV holding potential, read-out: IC50, Nav1.2): 9.5 ± 1.72 µM | IC50 (Nav1.2; changed holding potential, read-out: IC50, Nav1.2): 0.86 µM | IC50 (Nav1.2; holding potential -90 mV, 0.1 Hz, read-out: EC50 or IC50, Nav1.2): ~7.9 µM and 7.9 µM | IC50 (Nav1.2; pulse frequency 20 Hz, read-out: IC50, Nav1.2): 0.52 µM | IC50 (Nav1.1): 6.9 ± 4.9 µM

From US9675591B2, “Methods for treating seizure disorders and pain” (THE REGENTS OF THE UNIVERSITY OF CALIFORNIA, priority 2013, dated 2017)
